Results reported in PubChem BioAssay AID330 (DTP/NCI, 2004).
Values joined by “and” are separate entries in the source; they are usually repeats but may differ in a detail not shown here. Equal values may be shown once. Toxic doses and inconclusive results are not listed.

Tested on: P388 leukemia ip, CD2F1 mice, survival T/C
Assay: NCI In Vivo Anticancer Drug Screen. Data for tumor model P388 Leukemia (intraperitoneal) in CD2F1 (CDF1) mice
Conditions: endpoint: median survival time, higher = longer survival
In short: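 Mice carrying the transplanted tumor received test compound or vehicle. Survival was recorded in each group, and the value is the treated-group measurement divided by that of the vehicle-treated control group.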

[1] = dose: 60.0 mg/kg/injection, schedule: Q01DX005 (ip), vehicle: saline with Tween-80
[2] = dose: 120.0 mg/kg/injection, schedule: Q01DX005 (ip), vehicle: saline with Tween-80
[3] = dose: 240.0 mg/kg/injection, schedule: Q01DX005 (ip), vehicle: saline with Tween-80
[4] = dose: 50.0 mg/kg/injection, schedule: Q01DX009 (ip), vehicle: Klucel (hydroxypropylcellulose) (HPC)
[5] = dose: 100.0 mg/kg/injection, schedule: Q01DX009 (ip), vehicle: Klucel (hydroxypropylcellulose) (HPC)
[6] = dose: 100.0 mg/kg/injection, schedule: Q01DX001 (ip), vehicle: Klucel (hydroxypropylcellulose) (HPC)
[7] = dose: 200.0 mg/kg/injection, schedule: Q01DX001 (ip), vehicle: Klucel (hydroxypropylcellulose) (HPC)
[8] = dose: 400.0 mg/kg/injection, schedule: Q01DX001 (ip), vehicle: Klucel (hydroxypropylcellulose) (HPC)
[9] = dose: 50.0 mg/kg/injection, schedule: Q01DX005 (ip), vehicle: Klucel (hydroxypropylcellulose) (HPC)
[10] = dose: 100.0 mg/kg/injection, schedule: Q01DX005 (ip), vehicle: Klucel (hydroxypropylcellulose) (HPC)
[11] = dose: 200.0 mg/kg/injection, schedule: Q01DX005 (ip), vehicle: Klucel (hydroxypropylcellulose) (HPC)
[12] = dose: 50.0 mg/kg/injection, schedule: Q01DX005 (ip), vehicle: saline with Tween-80
[13] = dose: 100.0 mg/kg/injection, schedule: Q01DX005 (ip), vehicle: saline with Tween-80
[14] = dose: 200.0 mg/kg/injection, schedule: Q01DX005 (ip), vehicle: saline with Tween-80
[15] = dose: 50.0 mg/kg/injection, schedule: Q01DX009 (ip), vehicle: saline with Tween-80
[16] = dose: 100.0 mg/kg/injection, schedule: Q01DX009 (ip), vehicle: saline with Tween-80
[17] = dose: 100.0 mg/kg/injection, schedule: Q04DX003 (ip), vehicle: saline with Tween-80
[18] = dose: 200.0 mg/kg/injection, schedule: Q04DX003 (ip), vehicle: saline with Tween-80
[19] = dose: 50.0 mg/kg/injection, schedule: Q01DX009 (ip), vehicle: saline
[20] = dose: 100.0 mg/kg/injection, schedule: Q01DX009 (ip), vehicle: saline
[21] = dose: 12.5 mg/kg/injection, schedule: Q01DX001 (ip), vehicle: Klucel (hydroxypropylcellulose) (HPC)
[22] = dose: 25.0 mg/kg/injection, schedule: Q01DX001 (ip), vehicle: Klucel (hydroxypropylcellulose) (HPC)
[23] = dose: 50.0 mg/kg/injection, schedule: Q01DX001 (ip), vehicle: Klucel (hydroxypropylcellulose) (HPC)

For `COc1ccc2c(=O)c(Cc3c(-c4ccccc4)[nH]c4ccccc34)coc2c1`, the T/C [1] was 98 % of control, the T/C [2] was 91 % of control and the T/C [3] was 90 % of control.

In the case of `Cc1c(-c2ccccc2)nc(N(C)C)oc1=O`, the T/C [1] is reported as 105 % of control, the T/C [2] is reported as 101 % of control and the T/C [3] is reported as 100 % of control.

With `COc1ccc2nc(NC(=O)Nc3ccc(C)c(NC(=O)Nc4nc5ccc(OC)cc5s4)c3)sc2c1` the T/C [4] was 92 % of control and the T/C [5] was 89 % of control.

`Cc1nc(Nc2ccccc2)c2c(C)c(C)[nH]c2n1` was tested, and the T/C [1] was 103 % of control, the T/C [2] was 102 % of control and the T/C [3] was 98 % of control.

In the case of `O=C1OCCSCCOCCSCCOC(=O)c2cccc1n2`, the T/C [6] is reported as 96 % of control, the T/C [7] is reported as 93 % of control and the T/C [8] is reported as 102 % of control.

In the case of `CCCCNC1c2ccccc2CCC1O` (stereo not drawn), the T/C [6] is reported as 97 % of control, the T/C (dose: 100.0 mg/kg/injection, schedule: Q04DX002 (ip), vehicle: Klucel (hydroxypropylcellulose) (HPC)) is reported as 118 % of control and the T/C [7] is reported as 99 % of control.

With `CC1(C)OC(=O)C(=Cc2ccc(-c3cc(C(F)(F)F)cc(C(F)(F)F)c3)o2)C(=O)O1` the T/C [9] was 104 % of control, the T/C [10] was 100 % of control and the T/C [11] was 92 % of control.

`CCCCN(CCCC)CNC(=O)c1ccccc1` was tested, and the T/C [12] was 97 % of control and the T/C [13] was 100 % of control.

In the case of `CCC1(O)C(=O)c2ccccc2N(c2ccccc2)C1=O` (stereo not drawn), the T/C (dose: 60.0 mg/kg/injection, schedule: Q01DX005 (ip), vehicle: Klucel (hydroxypropylcellulose) (HPC)) is reported as 91 % of control, the T/C (dose: 120.0 mg/kg/injection, schedule: Q01DX005 (ip), vehicle: Klucel (hydroxypropylcellulose) (HPC)) is reported as 90 % of control and the T/C (dose: 240.0 mg/kg/injection, schedule: Q01DX005 (ip), vehicle: Klucel (hydroxypropylcellulose) (HPC)) is reported as 90 % of control.

With `COC(=O)C(OC)(OC)C(O)C(C)C` (stereo not drawn) the T/C (dose: 60.0 mg/kg/injection, schedule: Q01DX005 (ip), vehicle: saline) was 104 % of control, the T/C (dose: 120.0 mg/kg/injection, schedule: Q01DX005 (ip), vehicle: saline) was 103 % of control and the T/C (dose: 240.0 mg/kg/injection, schedule: Q01DX005 (ip), vehicle: saline) was 103 % of control.

In the case of `COc1cc2cc(-c3ccc(OC(C)C)c(OC)c3)[n+](C)cc2cc1OC`, the T/C (dose: 100.0 mg/kg/injection, schedule: Q01DX001 (ip), vehicle: saline with Tween-80) is reported as 100 % of control and the T/C (dose: 200.0 mg/kg/injection, schedule: Q01DX001 (ip), vehicle: saline with Tween-80) is reported as 94 % of control.

For `CC1CN(C(=O)c2ccccc2)CC/C1=N\O` (stereo not drawn), the T/C [12] was 97 % of control, the T/C [13] was 93 % of control and the T/C [14] was 101 % of control.

`S=C(CC(=S)N1CCOCC1)N1CCOCC1` was tested, and the T/C [1] was 103 % of control, the T/C [2] was 89 % of control and the T/C [3] was 97 % of control.

In the case of `N#CS.[Cr+3].[NH-]CC[NH-].[NH-]CC[NH-].[NH-]CC[NH-]`, the T/C [15] is reported as 104 % of control, the T/C [16] is reported as 95 % of control and the T/C [17] is reported as 100 % of control. For the same compound, the T/C [18] was 104 % of control.

`CC(=O)Nc1ccc(C(=O)O)c([N+](=O)[O-])c1` was tested, and the T/C (dose: 25.0 mg/kg/injection, schedule: Q01DX009 (ip), vehicle: Klucel (hydroxypropylcellulose) (HPC)) was 100 % of control, the T/C [4] was 107 % of control and the T/C [5] was 102 % of control. For the same compound, the T/C (dose: 200.0 mg/kg/injection, schedule: Q01DX009 (ip), vehicle: Klucel (hydroxypropylcellulose) (HPC)) was 107 % of control.

In the case of `COCC(O)C(NC(=O)CCl)C(=O)O` (stereo not drawn), the T/C [19] is reported as 110 % of control and 97 % of control, the T/C [20] is reported as 90 % of control and 98 % of control and the T/C (dose: 200.0 mg/kg/injection, schedule: Q01DX009 (ip), vehicle: saline) is reported as 95 % of control.

`Cc1cc(N)ccc1Cl` was tested, and the T/C (dose: 25.0 mg/kg/injection, schedule: Q01DX009 (ip), vehicle: saline with Tween-80) was 97 % of control, the T/C [15] was 110 % of control and the T/C [16] was 93 % of control. For the same compound, the T/C (dose: 200.0 mg/kg/injection, schedule: Q01DX009 (ip), vehicle: saline with Tween-80) was 96 % of control.

In the case of `[Cl][Pt+2][Cl].[NH-]CC([NH-])c1ccccc1` (stereo not drawn), the T/C (dose: 6.25 mg/kg/injection, schedule: Q04DX002 (ip), vehicle: saline with Tween-80) is reported as 179 % of control, the T/C [21] is reported as 152 % of control and the T/C (dose: 12.5 mg/kg/injection, schedule: Q04DX002 (ip), vehicle: saline with Tween-80) is reported as 194 % of control. The T/C [22] was 179 % of control, the T/C (dose: 25.0 mg/kg/injection, schedule: Q04DX002 (ip), vehicle: saline with Tween-80) was 220 % of control and the T/C [23] was 157 % of control and 163 % of control.

With `CCN(CC)CC(COC)Oc1cc(C)ccc1C(C)C` (stereo not drawn) the T/C (dose: 50.0 mg/kg/injection, schedule: Q04DX003 (ip), vehicle: saline with Tween-80) was 104 % of control, the T/C [17] was 95 % of control and the T/C [18] was 109 % of control.

`COc1cccc(C(Nc2nncs2)Nc2nncs2)c1` was tested, and the T/C [1] was 97 % of control, the T/C [2] was 97 % of control and the T/C [3] was 122 % of control.

`Nn1cnnc1N/N=C\c1ccc(N(CCCl)CCCl)cc1` was tested, and the T/C (dose: 12.5 mg/kg/injection, schedule: Q01DX009 (ip), vehicle: saline) was 121 % of control and 122 % of control, the T/C [19] was 174 % of control and 188 % of control and the T/C [20] was 195 % of control and 209 % of control.

In the case of `CCOC(=O)C1=NCCS1`, the T/C [12] is reported as 98 % of control, the T/C [13] is reported as 99 % of control and the T/C [14] is reported as 99 % of control.

For `CC(=O)/C(C(=N)c1nc(C)c(C(=O)c2ccccc2)c(C(N)=O)n1)=C(/O)c1ccccc1`, the T/C [6] was 90 % of control, the T/C [7] was 88 % of control and the T/C [8] was 89 % of control.

In the case of `[Se]=P(c1ccccc1)(N1CCCCC1)N1CCCCC1`, the T/C [21] is reported as 106 % of control, the T/C [22] is reported as 101 % of control and the T/C [23] is reported as 93 % of control.

In the case of `O=S(=O)(Nc1ccccn1)c1ccc(N=Cc2c3ccccc3nc3cc(Cl)ccc23)cc1`, the T/C [12] is reported as 91 % of control and the T/C [13] is reported as 88 % of control.

In the case of `CC(Oc1ccccc1)C(=O)O` (stereo not drawn), the T/C [15] is reported as 98 % of control and the T/C [16] is reported as 97 % of control.

`C=CC1=C(C)c2cc3[n-]c(c(CC(=O)O)c4nc(cc5[n-]c(cc1n2)c(C)c5CC)C(C)=C4C(=O)O)C(CCC(=O)O)C3C.[Pt+2]` (stereo not drawn) was tested, and the T/C (dose: 25.0 mg/kg/injection, schedule: Q04DX002 (ip), vehicle: saline) was 96 % of control, the T/C (dose: 50.0 mg/kg/injection, schedule: Q04DX002 (ip), vehicle: saline) was 99 % of control and the T/C (dose: 100.0 mg/kg/injection, schedule: Q04DX002 (ip), vehicle: saline) was 97 % of control. For the same compound, the T/C (dose: 200.0 mg/kg/injection, schedule: Q04DX002 (ip), vehicle: saline) was 88 % of control and the T/C (dose: 400.0 mg/kg/injection, schedule: Q04DX002 (ip), vehicle: saline) was 90 % of control.

`CCOc1c(N=Nc2ccccc2Cl)c(C)nn1C(=S)S` was tested, and the T/C (dose: 15.0 mg/kg/injection, schedule: Q01DX005 (ip), vehicle: Klucel + Tween-80) was 95 % of control, the T/C (dose: 30.0 mg/kg/injection, schedule: Q01DX005 (ip), vehicle: Klucel + Tween-80) was 100 % of control and the T/C (dose: 60.0 mg/kg/injection, schedule: Q01DX005 (ip), vehicle: Klucel + Tween-80) was 96 % of control.

In the case of `O=C(O)CCC(C(=O)O)N(Cc1ccccc1)Cc1ccccc1` (stereo not drawn), the T/C [6] is reported as 105 % of control, the T/C [7] is reported as 100 % of control and the T/C [8] is reported as 105 % of control.

In the case of `O=C1NN2CCCN=C2c2cnccc21`, the T/C (dose: 50.0 mg/kg/injection, schedule: Q01DX005 (ip), vehicle: saline) is reported as 110 % of control, the T/C (dose: 100.0 mg/kg/injection, schedule: Q01DX005 (ip), vehicle: saline) is reported as 97 % of control and the T/C (dose: 200.0 mg/kg/injection, schedule: Q01DX005 (ip), vehicle: saline) is reported as 89 % of control.

`O=Cc1cccc2[nH]ccc12` was tested, and the T/C [9] was 102 % of control, the T/C [10] was 99 % of control and the T/C [11] was 96 % of control.

In the case of `CCN=C(Cl)N(C)c1ccccc1`, the T/C [4] is reported as 100 % of control and the T/C [5] is reported as 95 % of control.
